Assay results reported in patent US10550110B2, “Tetrahydroquinoline sulfonamide derivatives as inverse agonists of retinoid-related orphan receptor gamma (ROR gamma (t))” (GALDERMA RESEARCH & DEVELOPMENT, priority 2014, dated 2020).

These compounds were tested against T1, ROR gamma ligand-binding domain (LBD) (hRORg) (Homo sapiens, UniProt P51449) (assay: GAL4-RORγ transactivation (luciferase reporter, HG5LN HeLa line)). Details: HG5LN HeLa line with GAL4 DBD fused to ROR gamma LBD, 18 hours incubation.
T1 construct: expressed in transfected cells; host or cells: HG5LN (HeLa line with GAL4-responsive luciferase reporter)
T1 sequence (P51449 269-508 limits assumed): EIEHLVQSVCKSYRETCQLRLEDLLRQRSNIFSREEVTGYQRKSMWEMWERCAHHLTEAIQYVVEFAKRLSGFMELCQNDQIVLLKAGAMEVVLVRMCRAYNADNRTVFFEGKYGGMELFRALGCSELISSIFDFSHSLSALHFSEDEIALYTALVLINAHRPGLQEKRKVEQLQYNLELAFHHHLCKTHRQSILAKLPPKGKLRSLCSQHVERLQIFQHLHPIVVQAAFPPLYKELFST
Format: cell-based
Excerpt: GAL4—RORγ Transactivation
The RORγ transactivation model was developed from the line HG5LN, which is a HeLa line that stably expresses a luciferase reporter gene controlled by a pentamer of the GAL4 recognition domain of yeast and of a β-globin promoter. The HG5LN line was stably transfected by the DNA-binding domain (DBD) of GAL4 fused to the ROR gamma ligand-binding domain (LBD). Molecules that inhibit the ROR gamma constitutive activity reduce the luciferase expression, thus leading to a reduction in the emitted luminescence.
The cells are seeded in 384-well plates (5000 cells in 45 μL/well of culture medium containing 10% fetal calf serum) and incubated for 4 hours at 37° C., 5% CO2. 5 μL of the test molecules (compounds described in the tables described above) are then added to each well and the plates are incubated for 18 hours at a temperature of 37° C. under 5% of CO2. 20 μL of luciferase substrate (Promega) are added to each well and the luminescence emitted is read by a microplate reader.
The luminescence units (“RLU”) are normalized by positive controls (“POS” containing a saturated concentration of N-(2,2,2-trifluoroethyl)-N-[4-[2,2,2-trifluoro-1-hydroxy-1-(trifluoromethyl)ethyl]phenyl])benzenesulfonamide and negative controls (“NEG” containing DMSO): % inhibition=((RLU-NEG)*100)/(POS-NEG). The IC50 values are calculated from a 4-parameter logistic model using the XLFit software (IDBS).

**Q.** How did the IC50 turn out when CCc1ccc(N(CC(C)C)S(=O)(=O)c2ccc3c(c2)C(O)CCN3CC2(O)CCOCC2)cc1 (stereo not drawn) [Compound 16, 4-hydroxy-1-(4-hydroxytetrahydropyran-4-ylmethyl)-1,2,3,4-tetrahydroquinoline-6-sulfonic acid (4-ethylphenyl)isobutylamide] was run?
**A.** Its IC50 is over 1000 nM.

**Q.** How did the IC50 turn out when CCc1ccc(N(CC(C)C)S(=O)(=O)c2ccc3c(c2)C(O)CCN3CC2CCS(=O)(=O)CC2)cc1 (stereo not drawn) [Compound 17, 1-(1,1-dioxohexahydro-1λ^6-thiopyran-4-ylmethyl)-4-hydroxy-1,2,3,4-tetrahydroquinoline-6-sulfonic acid (4-ethylphenyl)isobutylamide] was run?
**A.** The IC50 was over 1000 nM.

**Q.** For CCc1ccc(N(CC(C)C)S(=O)(=O)c2ccc3c(c2)C(O)CCN3CC2COC2)cc1 (stereo not drawn) [Compound 18, 4-hydroxy-1-oxetan-3-ylmethyl-1,2,3,4-tetrahydroquinoline-6-sulfonic acid (4-ethylphenyl)isobutylamide], which IC50 is on record?
**A.** Its IC50 is 100 to 1000 nM.

**Q.** For CCc1ccc(N(CC(C)C)S(=O)(=O)c2ccc3c(c2)C(O)CCN3Cc2ccncn2)cc1 (stereo not drawn) [Compound 21, 4-hydroxy-1-pyrimidin-4-ylmethyl-1,2,3,4-tetrahydroquinoline-6-sulfonic acid (4-ethylphenyl)isobutylamide], which IC50 is on record?
**A.** The IC50 was under 100 nM.

**Q.** For CCc1ccc(N(CC(C)C)S(=O)(=O)c2ccc3c(c2)C(O)CCN3CC2CCS(=O)(=O)C2)cc1 (stereo not drawn) [Compound 22, 1-(1,1-dioxotetrahydro-1λ^6-thiophen-3-ylmethyl)-4-hydroxy-1,2,3,4-tetrahydroquinoline-6-sulfonic acid (4-ethylphenyl)isobutylamide], which IC50 is on record?
**A.** The IC50 was 100 to 1000 nM.

**Q.** With CCc1ccc(N(CC(C)C)S(=O)(=O)c2ccc3c(c2)C(O)CCN3CC2CNC(=O)O2)cc1 (stereo not drawn) [Compound 23, 4-hydroxy-1-(2-oxooxazolidin-5-ylmethyl)-1,2,3,4-tetrahydroquinoline-6-sulfonic acid (4-ethylphenyl)isobutylamide] as the compound, how does the IC50 read?
**A.** The IC50 was 100 to 1000 nM.

**Q.** With CCc1ccc(N(CC(C)C)S(=O)(=O)c2ccc3c(c2)C(O)CCN3CC2CCC(=O)NC2)cc1 (stereo not drawn) [Compound 24, 4-hydroxy-1-(6-oxopiperidin-3-ylmethyl)-1,2,3,4-tetrahydroquinoline-6-sulfonic acid (4-ethylphenyl)isobutylamide] as the compound, how does the IC50 read?
**A.** The IC50 was 100 to 1000 nM.

**Q.** CCc1ccc(N(CC(C)C)S(=O)(=O)c2ccc3c(c2)C(O)CCN3CC2CCNC(=O)C2)cc1 (stereo not drawn) [Compound 25, 4-hydroxy-1-(2-oxopiperidin-4-ylmethyl)-1,2,3,4-tetrahydroquinoline-6-sulfonic acid (4-ethylphenyl)isobutylamide] was tested. Which IC50 did it give?
**A.** Its IC50 is over 1000 nM.

**Q.** How did the IC50 turn out when CCc1ccc(N(CC(C)C)S(=O)(=O)c2ccc3c(c2)C(O)CCN3CC2CNC(=O)C2)cc1 (stereo not drawn) [Compound 26, 4-hydroxy-1-(5-oxopyrrolidin-3-ylmethyl)-1,2,3,4-tetrahydroquinoline-6-sulfonic acid (4-ethylphenyl)isobutylamide] was run?
**A.** Its IC50 is 100 to 1000 nM.

**Q.** How did the IC50 turn out when CCc1ccc(N(CC(C)C)S(=O)(=O)c2ccc3c(c2)C(O)CCN3C2CCS(=O)(=O)CC2)cc1 (stereo not drawn) [Compound 27, 1-(1,1-dioxohexahydro-1λ^6-thiopyran-4-yl)-4-hydroxy-1,2,3,4-tetrahydroquinoline-6-sulfonic acid (4-ethylphenyl)isobutylamide] was run?
**A.** Its IC50 is 100 to 1000 nM.

**Q.** Which IC50 does the source give for CCc1ccc(N(CC(C)C)S(=O)(=O)c2ccc3c(c2)C(O)CCN3C2CCS(=O)(=O)C2)cc1 (stereo not drawn) [Compound 28, 1-(1,1-dioxotetrahydro-1λ^6-thiophen-3-yl)-4-hydroxy-1,2,3,4-tetrahydroquinoline-6-sulfonic acid (4-ethylphenyl)isobutylamide] here?
**A.** The IC50 was 100 to 1000 nM.

**Q.** With CCc1ccc(N(CC(C)C)S(=O)(=O)c2ccc3c(c2)C(O)CCN3Cc2cnoc2C)cc1 (stereo not drawn) [Compound 30, 4-hydroxy-1-(5-methylisoxazol-4-ylmethyl)-1,2,3,4-tetrahydroquinoline-6-sulfonic acid (4-ethylphenyl)isobutylamide] as the compound, how does the IC50 read?
**A.** Its IC50 is 100 to 1000 nM.

**Q.** CCc1ccc(N(CC(C)C)S(=O)(=O)c2ccc3c(c2)C(O)CCN3Cc2c(C)noc2C)cc1 (stereo not drawn) [Compound 31, 1-(3,5-dimethylisoxazol-4-ylmethyl)-4-hydroxy-1,2,3,4-tetrahydroquinoline-6-sulfonic acid (4-ethylphenyl)isobutylamide] was tested. Which IC50 did it give?
**A.** Its IC50 is 100 to 1000 nM.

**Q.** Which IC50 does the source give for CCc1ccc(N(CC(C)C)S(=O)(=O)c2ccc3c(c2)C(O)CCN3Cc2nonc2C)cc1 (stereo not drawn) [Compound 32, 4-hydroxy-1-(4-methylfurazan-3-ylmethyl)-1,2,3,4-tetrahydroquinoline-6-sulfonic acid (4-ethylphenyl)isobutylamide] here?
**A.** The IC50 was 100 to 1000 nM.

**Q.** For CCc1ccc(N(CC(C)C)S(=O)(=O)c2ccc3c(c2)C(O)CCN3CC2CCC(F)(F)CC2)cc1 (stereo not drawn) [Compound 33, 1-(4,4-difluorocyclohexylmethyl)-4-hydroxy-1,2,3,4-tetrahydroquinoline-6-sulfonic acid (4-ethylphenyl)isobutylamide], which IC50 is on record?
**A.** Its IC50 is over 1000 nM.

**Q.** With CCc1ccc(N(CC(C)C)S(=O)(=O)c2ccc3c(c2)C(O)CCN3CC2CCC(F)(F)C2)cc1 (stereo not drawn) [Compound 34, 1-(3,3-difluorocyclopentylmethyl)-4-hydroxy-1,2,3,4-tetrahydroquinoline-6-sulfonic acid (4-ethylphenyl)isobutylamide] as the compound, how does the IC50 read?
**A.** Its IC50 is 100 to 1000 nM.

**Q.** With CCc1ccc(N(CC(C)C)S(=O)(=O)c2ccc3c(c2)C(O)CCN3CC2CCC(C#N)CC2)cc1 (stereo not drawn) [Compound 35, 1-(4-cyanocyclohexylmethyl)-4-hydroxy-1,2,3,4-tetrahydroquinoline-6-sulfonic acid (4-ethylphenyl)isobutylamide] as the compound, how does the IC50 read?
**A.** Its IC50 is over 1000 nM.

**Q.** CCc1ccc(N(CC(C)C)S(=O)(=O)c2ccc3c(c2)C(O)CCN3OC2CCOCC2)cc1 (stereo not drawn) [Compound 36, 4-hydroxy-1-(tetrahydropyran-4-yloxy)-1,2,3,4-tetrahydroquinoline-6-sulfonic acid (4-ethylphenyl)isobutylamide] was tested. Which IC50 did it give?
**A.** The IC50 was 100 to 1000 nM.

**Q.** Which IC50 does the source give for CCc1ccc(N(CC(C)C)S(=O)(=O)c2ccc3c(c2)C(O)CCN3[C@H](C)C2CCOCC2)cc1 (stereo partly drawn) [Compound 38, 4-hydroxy-1-[(R)-1-(tetrahydropyran-4-yl)ethyl]-1,2,3,4-tetrahydroquinoline-6-sulfonic acid (4-ethylphenyl)isobutylamide] here?
**A.** Its IC50 is over 1000 nM.

**Q.** How did the IC50 turn out when CCc1ccc(N(CC(C)C)S(=O)(=O)c2ccc3c(c2)C(O)CCN3[C@H](C)C2CCOCC2)cc1 (stereo partly drawn) [Compound 39, 4-hydroxy-1-[(R)-1-(tetrahydropyran-4-yl)ethyl]-1,2,3,4-tetrahydroquinoline-6-sulfonic acid (4-ethylphenyl)isobutylamide] was run?
**A.** The IC50 was over 1000 nM.

**Q.** With CCc1ccc(N(CC(C)C)S(=O)(=O)c2ccc3c(c2)C(O)CCN3[C@@H](C)C2CCOCC2)cc1 (stereo partly drawn) [Compound 40, 4-hydroxy-1-[(S)-1-(tetrahydropyran-4-yl)ethyl]-1,2,3,4-tetrahydroquinoline-6-sulfonic acid (4-ethylphenyl)isobutylamide] as the compound, how does the IC50 read?
**A.** The IC50 was 100 to 1000 nM.

**Q.** With CCc1ccc(N(CC(C)C)S(=O)(=O)c2ccc3c(c2)C(O)CCN3[C@@H](C)C2CCOCC2)cc1 (stereo partly drawn) [Compound 41, 4-hydroxy-1-[(S)-1-(tetrahydropyran-4-yl)ethyl]-1,2,3,4-tetrahydroquinoline-6-sulfonic acid (4-ethylphenyl)isobutylamide] as the compound, how does the IC50 read?
**A.** The IC50 was 100 to 1000 nM.

**Q.** How did the IC50 turn out when CCc1ccc(N(CC(C)C)S(=O)(=O)c2ccc3c(c2)C(O)CCN3CC2CC3(COC3)C2)cc1 (stereo not drawn) [Compound 44, 4-hydroxy-1-(2-oxaspiro[3.3]hept-6-ylmethyl)-1,2,3,4-tetrahydroquinoline-6-sulfonic acid (4-ethylphenyl)isobutylamide] was run?
**A.** The IC50 was 100 to 1000 nM.

**Q.** How did the IC50 turn out when CCc1ccc(N(CC(C)C)S(=O)(=O)c2ccc3c(c2)C(O)CCN3Cc2ccc(C(=O)NO)cc2)cc1 (stereo not drawn) [Compound 47, 4-{6-[(4-ethylphenyl)isobutylsulfamoyl]-4-hydroxy-3,4-dihydro-2H-quinolin-1-ylmethyl}-N-hydroxybenzamide] was run?
**A.** The IC50 was over 1000 nM.

**Q.** For CCc1ccc(N(CC(C)C)S(=O)(=O)c2ccc3c(c2)C(O)CCN3[C@H]2CC[C@H](C(=O)OC)CC2)cc1 (stereo partly drawn) [Compound 48, methyl (1R,4R)-4-(6-(N-(4-ethylphenyl)-N-isobutylsulfamoyl)-4-hydroxy-3,4-dihydroquinolin-1(2H)-yl)cyclohexane-1-carboxylate], which IC50 is on record?
**A.** Its IC50 is over 1000 nM.

**Q.** With CCc1ccc(N(CC(C)C)S(=O)(=O)c2ccc3c(c2)C(O)CCN3[C@H]2CC[C@@H](C(=O)OC)CC2)cc1 (stereo partly drawn) [Compound 49, methyl (1S,4S)-4-(6-(N-(4-ethylphenyl)-N-isobutylsulfamoyl)-4-hydroxy-3,4-dihydroquinolin-1(2H)-yl)cyclohexane-1-carboxylate] as the compound, how does the IC50 read?
**A.** Its IC50 is over 1000 nM.

**Q.** CCc1ccc(N(CC(C)C)S(=O)(=O)c2ccc3c(c2)C(O)CCN3CC2CCN(C(=O)OC)C2)cc1 (stereo not drawn) [Compound 50, methyl ester of 3-{6-[(4-ethylphenyl)isobutylsulfamoyl]-4-hydroxy-3,4-dihydro-2H-quinolin-1-ylmethyl}pyrrolidine-1-carboxylic acid] was tested. Which IC50 did it give?
**A.** The IC50 was over 1000 nM.
